These are literature values, as cited in article PMC9897045 (ACS Omega, 2023).

Series [1] has as its system main protease (Mpro, 3CLpro, nsp5). As to conditions: read-out: EC50 against main protease (Mpro).

The structures appear in SMILES notation. Like-named read-outs stand apart in the source and are kept apart here.

For `Cn1cnc(Cn2c(=O)[nH]/c(=N\c3cc4cn(C)nc4cc3Cl)n(Cc3cc(F)c(F)cc3F)c2=O)n1` [S-217622, (6E)-6-[(6-chloro-2-methyl-2H-indazol-5-yl)imino]-3-[(1-methyl-1H-1,2,4-triazol-3-yl)methyl]-1-(2,4,5-trifluorobenzyl)-1,3,5-triazinane-2,4-dione], the EC50 with SARS-CoV-2 (read-out: EC50 against SARS-CoV-2, range over strains, CPE EC50) was 290 to 500 nM; in the series with SARS-CoV-2 (read-out: EC50 against SARS-CoV-2 Alpha strain, strain QK002), 330 nM; in the series with SARS-CoV-2 (read-out: EC50 against SARS-CoV-2 Beta strain, strain TY8-612), 400 nM; in the series on SARS-CoV-2 (read-out: EC50 against SARS-CoV-2 Delta strain, strain TY11-927-P1) it was 410 nM; in the series with SARS-CoV-2 (read-out: EC50 against SARS-CoV-2 Gamma strain, strain TY7-501), 500 nM; with SARS-CoV-2 (read-out: EC50 against SARS-CoV-2 Omicron strain, strain TY38-873), 290 nM. Also, the EC50 in series [1] is 13 nM.
